Reference: patent US20240226107A1, “UBIQUITIN-SPECIFIC PROTEASE 1 (USP1) INHIBITOR” (SIMCERE ZAIMING PHARMACEUTICAL CO., LTD., priority 2021, published 2024)

Experiments:
[1] = biological target: USP1 (Recombinant Human His6-USP1/His6-UAF1 Complex Protein) (Homo sapiens (Human), UniProt O94782); assay: In vitro activity assay for USP1 (Ub-CHOP2-Reporter deubiquitination assay); assay type: biochemical; settings: 0.5 h incubation at room temperature, read-out: In vitro inhibitory activity of USP1 IC50
Summary of the method: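 His6-USP1/His6-UAF1 complex was mixed with compound in 20 mM Tris-HCl pH 8.0, 2 mM CaCl2, 2 mM β-mercaptoethanol and 0.05% CHAPS. Ub-CHOP2 reporter system plus substrate was added, then incubated 0.5 h at room temperature. IC50 came from a four-parameter logistic fit.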

[2] = biological target: PXR (Homo sapiens (Human), UniProt O75469); assay: Potential for PXR activation in DPX2 cells; assay type: cell-based; settings: 30 μM, versus 20 μM rifampicin
Protocol: DMSO solutions of the compounds to be tested and the control compound rifampicin solution were prepared, and diluted with Puracyp dosing medium (Puracyp, Cat. No: D-500-100) at 37° C. to respective test concentrations. The final concentrations of the compounds to be tested were 30 μM, 10 μM, and 1 μM, respectively, and the final concentration of rifampicin was 20 μM. The final concentration of DMSO in the test solution was 0.1%. In addition, 0.1% DMSO solution prepared with Puracyp dosing medium was used as a control.
DPX2 cells were suspended in Puracyp Culture medium (Puracyp, Cat No.: C-500-100) at a cell density of 4.5×10^5 cell/mL. Then, the suspension was placed on a 96-well culture plate at 100 μL/well for incubation at 37° C. for 24 h. The medium in appropriate wells of the 96-well culture plate was replaced (three times per well) by 100 μL of solution of the compounds to be tested and a control compound solution. After replacement, the plate was incubated at 37° C. for 24 h. The medium was then replaced (three times per well) by a newly prepared test solution of the compounds to be tested and a rifampicin test solution, and the plate was incubated at 37° C. for 24 h.
The medium in the 96-well culture plate was pipetted and washed twice with PBS. To each well, 50 μL of reagent diluted as required by CellTiter-Fluor™ Cell Viability Assay Kit (Promega, Cat. No.: G6082) was added, and incubated at 37° C. for 0.5 h. The 96-well plate was cooled to room temperature, and the fluorescence value of each well at 505 nm was measured in a fluorescence mode with a microplate reader at an excitation wavelength of 400 nm. Then, 50 μL of reagent prepared as required by One-Glo Luciferase Assay System (Promega, Cat. No.: E6120) was added to each well, and the mixture was incubated at room temperature for 5 min. The luminescence value of each well was read by using a lumen meter.
Normalized luciferase activity was determined by RLU/RFU, and the RLU and RFU of the samples were mean values of duplicate wells, respectively.
[formula] • Fold of activation: fold of activation of normalized luciferase; • RLUtest: measured luminescence value of test wells at each test dose of test compounds; • RLUvehicle: measured luminescence value of test wells when tested with the control DMSO solution; • RFUtest: measured fluorescence value of test wells at each test dose of test compounds; • RFUvehicle: measured fluorescence value of test wells when tested with the control DMSO solution.
The percentage of positive control was calculated as follows:
% Positive control=(fold activationtest compound−1)/(fold activationpositive control compound−1)×100% • % Positive control: percentage of PXR activation compared with 20 μM rifampicin activation at each test dose of test compounds; • Fold activationtest compound: fold of activation of normalized luciferase at each test dose of test compounds; • Fold activationpositive control compound: fold of activation of normalized luciferase of test compounds under 20 μM rifampicin.

Chain of USP1 (Recombinant Human His6-USP1/His6-UAF1 Complex Protein) (O94782 whole entry): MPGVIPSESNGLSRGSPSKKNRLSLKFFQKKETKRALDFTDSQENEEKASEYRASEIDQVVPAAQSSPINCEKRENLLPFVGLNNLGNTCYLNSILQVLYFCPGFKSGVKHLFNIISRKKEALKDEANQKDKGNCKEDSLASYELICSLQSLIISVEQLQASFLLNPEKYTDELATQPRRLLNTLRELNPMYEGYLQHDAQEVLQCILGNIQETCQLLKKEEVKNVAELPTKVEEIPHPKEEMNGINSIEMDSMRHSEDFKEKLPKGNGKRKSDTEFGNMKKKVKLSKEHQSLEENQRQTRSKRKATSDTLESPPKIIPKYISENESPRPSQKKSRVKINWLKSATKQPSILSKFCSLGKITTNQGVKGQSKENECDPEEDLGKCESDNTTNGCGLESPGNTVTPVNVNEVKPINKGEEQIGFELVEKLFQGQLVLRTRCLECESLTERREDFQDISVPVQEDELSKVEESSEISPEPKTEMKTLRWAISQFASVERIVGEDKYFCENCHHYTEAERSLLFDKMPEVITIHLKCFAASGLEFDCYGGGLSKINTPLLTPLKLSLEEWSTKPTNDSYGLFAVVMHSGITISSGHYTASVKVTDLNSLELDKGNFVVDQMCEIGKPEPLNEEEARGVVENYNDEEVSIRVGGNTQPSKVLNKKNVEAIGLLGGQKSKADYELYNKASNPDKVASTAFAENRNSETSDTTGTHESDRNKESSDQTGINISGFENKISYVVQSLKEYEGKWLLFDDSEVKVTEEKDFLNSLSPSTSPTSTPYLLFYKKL
Chain of USP1 (Recombinant Human His6-USP1/His6-UAF1 Complex Protein) (Q8TAF3 whole entry partner): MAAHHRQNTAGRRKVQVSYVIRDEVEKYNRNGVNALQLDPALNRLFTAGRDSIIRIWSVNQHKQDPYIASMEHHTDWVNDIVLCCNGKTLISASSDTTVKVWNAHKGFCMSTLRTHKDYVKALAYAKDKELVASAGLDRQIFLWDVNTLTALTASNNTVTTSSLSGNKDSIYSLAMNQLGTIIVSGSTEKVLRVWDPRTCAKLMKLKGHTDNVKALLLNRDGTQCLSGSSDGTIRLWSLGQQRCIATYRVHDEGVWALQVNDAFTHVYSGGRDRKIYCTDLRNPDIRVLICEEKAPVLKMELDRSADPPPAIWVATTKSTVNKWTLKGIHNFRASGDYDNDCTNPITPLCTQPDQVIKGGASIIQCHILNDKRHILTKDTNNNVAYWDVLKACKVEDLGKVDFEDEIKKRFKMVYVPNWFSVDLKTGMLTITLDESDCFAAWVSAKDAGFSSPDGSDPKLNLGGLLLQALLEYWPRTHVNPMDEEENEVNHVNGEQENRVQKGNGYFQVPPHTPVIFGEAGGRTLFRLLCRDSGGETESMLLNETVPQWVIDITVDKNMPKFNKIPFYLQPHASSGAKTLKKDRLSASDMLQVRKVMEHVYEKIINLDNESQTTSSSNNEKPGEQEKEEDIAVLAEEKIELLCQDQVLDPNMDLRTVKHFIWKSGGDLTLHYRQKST
Chain of PXR (O75469 whole entry): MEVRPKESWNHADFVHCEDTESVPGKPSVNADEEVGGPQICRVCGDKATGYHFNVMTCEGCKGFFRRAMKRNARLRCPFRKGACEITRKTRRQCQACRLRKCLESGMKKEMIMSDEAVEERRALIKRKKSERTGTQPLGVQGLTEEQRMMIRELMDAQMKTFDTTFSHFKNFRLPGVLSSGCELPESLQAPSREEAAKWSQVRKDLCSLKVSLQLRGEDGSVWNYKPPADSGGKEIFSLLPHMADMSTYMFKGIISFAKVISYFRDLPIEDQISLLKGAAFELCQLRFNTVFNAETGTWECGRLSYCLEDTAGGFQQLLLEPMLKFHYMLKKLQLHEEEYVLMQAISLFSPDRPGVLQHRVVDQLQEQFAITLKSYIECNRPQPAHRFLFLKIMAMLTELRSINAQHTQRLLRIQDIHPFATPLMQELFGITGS

## COc1ncnc(C2CC2)c1-c1ncc2c(n1)N(Cc1ccc(-c3nc(C(F)(F)F)cn3C)cc1)CC(=O)N2C [Compound 11, 2-(4-cyclopropyl-6-methoxypyrimidin-5-yl)-5-methyl-8-(4-(1-methyl-4-(trifluoromethyl)-1H-imidazol-2-yl)benzyl)-7,8-dihydropteridin-6(5H)-one]
[1]
  IC50: 45.4 nM
[2]
  PXR activation (% Positive control): 14.0 % Positive control
